Test results reported in patent US7498304B2, “Angiogenesis-modulating compositions and uses” (Curis, Inc., priority 2002, dated 2009).

Assays:
[1] = test system: C3H10T1/2 cells; assay: C3H10T1/2 alkaline phosphatase induction assay; type: cell-based, mouse
Text: Persons having ordinary skill in the art can easily test any putative hedgehog antagonist for these properties. In particular, the mouse embryonic fibroblast line C3H10T1/2 is a mesenchymal stem cell line that is hedgehog responsive. Hedgehog treatment of the cells causes an upregulation of gli-1 and patched-1 (known indicators of hedgehog dependent signaling) and also causes induction of alkaline phosphatase activity, an indicator that the cells have differentiated down the chondrocyte/ bone osteoblast lineage. Several hedgehog variants are unable to elicit a hedgehog-dependent response on C3H10T1/2 cells, but they competed with mature hedgehog for function and therefore serve as functional antagonists. […]
The mouse embryonic fibroblast line C3H10T1/2 is a mesenchymal stem cell line that, under defined conditions, can differentiate into adipocytes, chondrocytes, and bone osteoblasts (Taylor, S. M., and Jones, P. A., Cell 17: 771-779 (1979) and Wang, E. A., et al., Growth Factors 9: 57-71 (1993)). […] Shh has a similar effect on C3H10T1/2 cells (Kinto, N. et al., FEBS Letts. 404: 319-323 (1997)) and we routinely use the alkaline phosphatase induction by Shh as a quantitative measure of its in vitro potency. Shh treatment also produces a dose-dependent increase in gli-1 and ptc-1 expression, which can be readily detected by a PCR-based analysis.

[2] = target: T1, patched-1 (Homo sapiens, UniProt Q13635); assay: binding to the hedgehog receptor patched-1; details: compared with mature Shh
T1 sequence (Q13635 1-1447): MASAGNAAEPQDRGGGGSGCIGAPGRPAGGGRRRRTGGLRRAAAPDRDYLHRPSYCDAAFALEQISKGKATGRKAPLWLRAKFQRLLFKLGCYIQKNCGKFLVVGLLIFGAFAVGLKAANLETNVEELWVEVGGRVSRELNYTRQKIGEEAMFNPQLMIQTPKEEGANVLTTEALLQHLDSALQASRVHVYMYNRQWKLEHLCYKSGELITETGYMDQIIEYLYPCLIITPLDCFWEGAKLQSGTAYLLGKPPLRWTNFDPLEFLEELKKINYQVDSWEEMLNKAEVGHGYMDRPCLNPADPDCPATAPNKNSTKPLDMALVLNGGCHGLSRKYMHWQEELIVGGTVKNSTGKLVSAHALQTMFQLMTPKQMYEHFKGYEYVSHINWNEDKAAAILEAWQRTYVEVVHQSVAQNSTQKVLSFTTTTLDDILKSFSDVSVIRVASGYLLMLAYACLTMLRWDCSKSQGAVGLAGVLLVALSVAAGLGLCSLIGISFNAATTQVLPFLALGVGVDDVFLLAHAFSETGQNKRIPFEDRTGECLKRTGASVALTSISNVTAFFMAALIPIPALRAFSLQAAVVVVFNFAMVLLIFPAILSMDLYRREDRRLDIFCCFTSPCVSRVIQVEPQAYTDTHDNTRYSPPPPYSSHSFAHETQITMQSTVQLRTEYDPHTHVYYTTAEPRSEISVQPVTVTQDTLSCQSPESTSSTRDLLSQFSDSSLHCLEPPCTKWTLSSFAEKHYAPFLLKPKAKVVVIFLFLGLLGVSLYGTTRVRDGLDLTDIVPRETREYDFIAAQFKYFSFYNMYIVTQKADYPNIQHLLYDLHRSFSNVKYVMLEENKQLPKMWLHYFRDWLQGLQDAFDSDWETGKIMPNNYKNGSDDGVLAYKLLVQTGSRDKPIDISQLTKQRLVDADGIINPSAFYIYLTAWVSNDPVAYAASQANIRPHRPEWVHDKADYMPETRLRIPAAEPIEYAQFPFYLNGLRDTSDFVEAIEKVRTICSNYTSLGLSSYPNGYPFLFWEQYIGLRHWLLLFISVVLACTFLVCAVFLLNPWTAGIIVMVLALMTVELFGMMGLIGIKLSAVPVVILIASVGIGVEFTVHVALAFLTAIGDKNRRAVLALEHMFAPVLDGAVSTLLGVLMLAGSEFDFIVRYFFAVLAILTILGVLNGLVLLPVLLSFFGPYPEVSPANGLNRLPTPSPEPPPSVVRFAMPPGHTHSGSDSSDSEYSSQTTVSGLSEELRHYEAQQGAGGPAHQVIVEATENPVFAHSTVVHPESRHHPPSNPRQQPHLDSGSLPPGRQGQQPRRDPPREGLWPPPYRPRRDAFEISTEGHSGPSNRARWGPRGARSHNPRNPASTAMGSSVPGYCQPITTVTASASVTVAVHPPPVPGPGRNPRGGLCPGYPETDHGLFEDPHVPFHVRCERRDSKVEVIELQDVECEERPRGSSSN

[3] = test system: matrigel plug; assay: subcutaneous matrigel plug assay of angiogenesis; details: mouse, in vivo
Experimental: Hedgehog was also found to induce angiogenesis in the subcutaneous matrigel plug assay (Passaniti et al., 1992). Doses of 2 to 10 ug/ml of octyl, myr, PEG II or II-Fc fusion forms of human recombinant Shh were prepared in 0.5 ml of matrigel containing 40 IU/ml of heparin and injected subcutaneously into C57BL6 mice (3-5 mo. old, 5 mice/treatment group). The mice were sacrificed between 6-7 days after injection and the matrigel plug was dissected for visual inspection and histological analysis. […] The results of the matrigel plug support the finding that hedgehog can induce angiogenesis in vivo.

Substance | block of AP induction by mature Shh [1] | ability to bind patched-1 [2] | implants with significant hemoglobin content [3]
Shh in which the N-terminal cysteine is replaced with a serine residue: Shh mutant, N-terminal cysteine replaced with serine; functional antagonist | blocks AP induction | indistinguishable from mature Shh | 
bFGF: Recombinant human bFGF, a known angiogenic protein |  |  | 3 of 5
